Like-named read-outs stand apart in the source and are kept apart here.
How the values were obtained:
Assay in all cases: cell-based
[1] = biological target: T1, CAT1 (cationic amino acid transporter 1, CAT1/SLC7A1) (Homo sapiens, UniProt P30825); design: species or system HEK-CAT1 (HEK293 stably transfected); Inhibition of net CAT1-mediated [3H]-L-arginine (100 uM) uptake, 5 min, scintillation counting, vector control subtracted; details: HEK293, L-arginine 100 uM as substrate; for inhibition at 20 µM: read-out: % Inhibition of L-arginine uptake at 20 µM; for inhibition at 200 µM: read-out: % Inhibition of L-arginine uptake at 200 µM
T1 construct: full-length human transporter stably transfected in HEK cells (HEK-CAT1); net uptake against HEK-VC vector control cells
Method: (§1) Uptake and inhibition assays using HEK-CAT1 and HEK-VC cells and L-arginine, L-homoarginine, and ADMA as substrates were performed using the protocol described (Strobel et al. [2012]; Chafai et al. [2017]). Briefly, after incubation, the supernatant was replaced with transport buffer containing [^3H]- L-arginine for 5 min and 2.5 min for medium containing [^3H]-L-homoarginine or [^3H]-ADMA with or without the test compound. The reference drugs were screened at concentrations of 20 µM (Figs. 1A, 2A, and 3A) and 200 µM (Figs. 1B, 2B, and 3B). […] The net uptake was determined by subtracting the total amount taken up by control cells from the amount taken up by CAT1-expressing cells, which was expressed as a percentage of the amount taken up by the control. To determine the inhibitory effects of the drugs on CAT1-mediated transport of L-arginine, L-homoarginine, or ADMA, the control was measured in the absence of the potential inhibitor. The value for the percent inhibition was calculated as: Inhibition (%) = 100 – (V/V0 ^* 100), where V and V0 are the net uptake rates (uptake into HEK-CAT1 cells—uptake into HEK-VC cells) with and without test drugs, respectively. […] Each bar represents the effect of one compound on CAT1-mediated L-arginine (100 μM) uptake as percent inhibition. Data were obtained from at least two independent experiments performed in triplicate (n = 6–9) and each test data from the independent experiment were normalized to the respective control data to get the value of percent inhibition. Negative inhibition values indicate stimulated CAT1-mediated uptake. Data were analyzed using one-way ANOVA and Dunnett’s multiple comparison test with p < 0.05. Bars showing a statistically significant inhibition or transport stimulation are shaded in black

[2] = biological target: T1, CAT1 (cationic amino acid transporter 1, CAT1/SLC7A1); design: species or system HEK-CAT1 (HEK293 stably transfected); Inhibition of net CAT1-mediated [3H]-L-homoarginine (1 uM) uptake, 2.5 min, scintillation counting, vector control subtracted; details: HEK293, L-homoarginine 1 uM as substrate; for inhibition at 20 µM: read-out: % Inhibition of L-homoarginine uptake at 20 µM; for inhibition at 200 µM: read-out: % Inhibition of L-homoarginine uptake at 200 µM
Method: as §1, with “L-homoarginine (1” for “L-arginine (100”

[3] = biological target: T1, CAT1 (cationic amino acid transporter 1, CAT1/SLC7A1); design: species or system HEK-CAT1 (HEK293 stably transfected); Inhibition of net CAT1-mediated [3H]-ADMA (1 uM) uptake, 2.5 min, scintillation counting, vector control subtracted; details: HEK293, ADMA 1 uM as substrate; for inhibition at 20 µM: read-out: % Inhibition of ADMA uptake at 20 µM; for inhibition at 200 µM: read-out: % Inhibition of ADMA uptake at 200 µM
Method: as §1, with “ADMA (1” for “L-arginine (100”

T1 sequence (P30825 whole entry): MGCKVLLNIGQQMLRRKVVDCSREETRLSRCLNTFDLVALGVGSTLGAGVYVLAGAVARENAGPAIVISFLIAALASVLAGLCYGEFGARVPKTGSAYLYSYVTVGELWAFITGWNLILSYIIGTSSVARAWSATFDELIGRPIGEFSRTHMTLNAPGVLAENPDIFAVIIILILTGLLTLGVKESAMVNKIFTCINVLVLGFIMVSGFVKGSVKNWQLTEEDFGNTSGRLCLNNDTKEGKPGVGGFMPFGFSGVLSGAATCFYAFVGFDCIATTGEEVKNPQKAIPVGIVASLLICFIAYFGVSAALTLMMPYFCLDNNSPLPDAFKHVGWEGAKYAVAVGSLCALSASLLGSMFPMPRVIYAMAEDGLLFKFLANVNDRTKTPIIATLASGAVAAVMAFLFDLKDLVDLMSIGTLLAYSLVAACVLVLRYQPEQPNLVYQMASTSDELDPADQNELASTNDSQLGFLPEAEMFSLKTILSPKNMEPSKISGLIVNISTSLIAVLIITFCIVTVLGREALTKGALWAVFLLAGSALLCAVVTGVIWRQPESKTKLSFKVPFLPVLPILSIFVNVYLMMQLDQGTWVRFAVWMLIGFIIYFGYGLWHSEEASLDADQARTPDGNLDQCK

CCCC1O[C@@H]2C[C@H]3[C@@H]4CCC5=CC(=O)C=C[C@]5(C)[C@H]4[C@@H](O)C[C@]3(C)[C@]2(C(=O)CO)O1 (stereo partly drawn) [Budesonide]
inhibition at 20 µM [1]: -9.7 ± 7.8% | inhibition at 200 µM [1]: -6.4 ± 3.9% | inhibition at 20 µM [2]: -9.7 ± 5.5% | inhibition at 200 µM [2]: -4.9 ± 6.5% | inhibition at 20 µM [3]: -13.2 ± 3.7% | inhibition at 200 µM [3]: -47.7 ± 6.5%

CCCCNc1cc(C(=O)O)cc(S(N)(=O)=O)c1Oc1ccccc1 [Bumetanide]
inhibition at 20 µM [1]: 9 ± 4% | inhibition at 200 µM [1]: -10.1 ± 1.7% | inhibition at 20 µM [2]: 8.9 ± 4.1% | inhibition at 200 µM [2]: -8.6 ± 1.9% | inhibition at 20 µM [3]: -2.8 ± 6.2% | inhibition at 200 µM [3]: -9.7 ± 5.6%

CCOc1nc2cccc(C(=O)O)c2n1Cc1ccc(-c2ccccc2-c2nnn[nH]2)cc1 [Candesartan]
inhibition at 20 µM [1]: 14.5 ± 2.4% | inhibition at 200 µM [1]: -18.8 ± 2.4% | inhibition at 20 µM [2]: 12.6 ± 2.2% | inhibition at 200 µM [2]: -12.6 ± 3.8% | inhibition at 20 µM [3]: -11.1 ± 0.9% | inhibition at 200 µM [3]: 8.1 ± 3.1%

C[C@H](CS)C(=O)N1CCC[C@H]1C(=O)O [Captopril]
inhibition at 20 µM [1]: 0.6 ± 4.7% | inhibition at 200 µM [1]: -15.1 ± 13.1% | inhibition at 20 µM [2]: 0.1 ± 4.5% | inhibition at 200 µM [2]: -15.9 ± 3% | inhibition at 20 µM [3]: 0.5 ± 2.1% | inhibition at 200 µM [3]: -19.6 ± 2.2%

NC(=O)N1c2ccccc2C=Cc2ccccc21 [Carbamazepine]
inhibition at 20 µM [1]: 17.8 ± 4.1% | inhibition at 200 µM [1]: 0.7 ± 4.3% | inhibition at 20 µM [2]: 18.9 ± 3.5% | inhibition at 200 µM [2]: 12.7 ± 3.9% | inhibition at 20 µM [3]: 4.8 ± 2.1% | inhibition at 200 µM [3]: 12.8 ± 4.2%

COc1ccccc1OCCNCC(O)COc1cccc2[nH]c3ccccc3c12 (stereo not drawn) [Carvedilol]
inhibition at 20 µM [1]: -14.1 ± 1.5% | inhibition at 200 µM [1]: 0.2 ± 3.5% | inhibition at 20 µM [2]: -11.2 ± 0.9% | inhibition at 200 µM [2]: -1.4 ± 7.7% | inhibition at 20 µM [3]: -1.1 ± 3.1% | inhibition at 200 µM [3]: -7.8 ± 7.1%

CO/N=C(\C(=O)N[C@@H]1C(=O)N2C(C(=O)O)=C(COC(N)=O)CS[C@H]12)c1ccco1 [Cefuroxime]
inhibition at 20 µM [1]: 17.3 ± 3.5% | inhibition at 200 µM [1]: -9.8 ± 8.4% | inhibition at 20 µM [2]: 16.8 ± 1.6% | inhibition at 200 µM [2]: -8.5 ± 5.9% | inhibition at 20 µM [3]: -7.1 ± 2.9% | inhibition at 200 µM [3]: -11.5 ± 2.8%

O=C(O)CCCc1ccc(N(CCCl)CCCl)cc1 [Chlorambucil]
inhibition at 20 µM [1]: -23.3 ± 3.8% | inhibition at 200 µM [1]: -43.3 ± 6.5% | inhibition at 20 µM [2]: -18.6 ± 1.4% | inhibition at 200 µM [2]: -41.6 ± 6.4% | inhibition at 20 µM [3]: -5.1 ± 2.8% | inhibition at 200 µM [3]: 13.9 ± 4.4%

CCN(CC)CCCC(C)Nc1ccnc2cc(Cl)ccc12 (stereo not drawn) [Chloroquine]
inhibition at 20 µM [1]: -6.1 ± 1.1% | inhibition at 200 µM [1]: -11.4 ± 2.6% | inhibition at 20 µM [2]: -35.1 ± 5.2% | inhibition at 200 µM [2]: -54.8 ± 6.9% | inhibition at 20 µM [3]: -27 ± 16.2% | inhibition at 200 µM [3]: -23.1 ± 8.2%

CN/C(=N\CCSCc1nc[nH]c1C)NC#N [Cimetidine]
inhibition at 20 µM [1]: 0.2 ± 7.2% | inhibition at 200 µM [1]: -65.4 ± 5.8% | inhibition at 20 µM [2]: 21.9 ± 3% | inhibition at 200 µM [2]: -31.2 ± 1.3% | inhibition at 20 µM [3]: 21.9 ± 3.1% | inhibition at 200 µM [3]: 1.1 ± 2.5%

CN(C)CCCC1(c2ccc(F)cc2)OCc2cc(C#N)ccc21 (stereo not drawn) [Citalopram]
inhibition at 20 µM [1]: -16.7 ± 9.2% | inhibition at 200 µM [1]: 42.8 ± 4.1% | inhibition at 20 µM [2]: 8.8 ± 3.3% | inhibition at 200 µM [2]: 29.6 ± 3.1% | inhibition at 20 µM [3]: 8.8 ± 3.3% | inhibition at 200 µM [3]: -15.6 ± 8.1%

CC[C@H]1OC(=O)[C@H](C)[C@@H](O[C@H]2C[C@@](C)(OC)[C@@H](O)[C@H](C)O2)[C@H](C)[C@@H](O[C@@H]2O[C@H](C)C[C@H](N(C)C)[C@H]2O)[C@](C)(OC)C[C@@H](C)C(=O)[C@H](C)[C@@H](O)[C@]1(C)O [Clarithromycin]
inhibition at 20 µM [1]: -16.8 ± 2.1% | inhibition at 200 µM [1]: -14.3 ± 6.2% | inhibition at 20 µM [2]: -2.4 ± 2.1% | inhibition at 200 µM [2]: -13.6 ± 3.3% | inhibition at 20 µM [3]: -3.9 ± 5.3% | inhibition at 200 µM [3]: -72.9 ± 1.6%

CN(C)CCCN1c2ccccc2CCc2ccc(Cl)cc21 [Clomipramine]
inhibition at 20 µM [1]: -4.1 ± 0.9% | inhibition at 200 µM [1]: -12.8 ± 4.8% | inhibition at 20 µM [2]: -4.5 ± 0.7% | inhibition at 200 µM [2]: -12.2 ± 3.9% | inhibition at 20 µM [3]: 18 ± 3.1% | inhibition at 200 µM [3]: 14 ± 1.9%

C[C@@H]1CCC[C@H](C)N1NC(=O)c1ccc(Cl)c(S(N)(=O)=O)c1 [Clopamide]
inhibition at 20 µM [1]: 4.5 ± 1.9% | inhibition at 200 µM [1]: 23.4 ± 2.5% | inhibition at 20 µM [2]: -14.3 ± 2.1% | inhibition at 200 µM [2]: 14.3 ± 2.2% | inhibition at 20 µM [3]: -11.1 ± 2.3% | inhibition at 200 µM [3]: 11.6 ± 6.5%

COC(=O)[C@H](c1ccccc1Cl)N1CCc2sccc2C1 [Clopidogrel]
inhibition at 20 µM [1]: 6.4 ± 4.4% | inhibition at 200 µM [1]: 1.5 ± 4.1% | inhibition at 20 µM [2]: 1.9 ± 5.4% | inhibition at 200 µM [2]: 0.8 ± 3.1% | inhibition at 20 µM [3]: -11 ± 8.1% | inhibition at 200 µM [3]: -8.9 ± 14.9%

Nc1ccc(S(=O)(=O)c2ccc(N)cc2)cc1 [Dapsone]
inhibition at 20 µM [1]: -8.6 ± 4.3% | inhibition at 200 µM [1]: -27.2 ± 4.2% | inhibition at 20 µM [2]: -9.8 ± 4.4% | inhibition at 200 µM [2]: -24.7 ± 3.1% | inhibition at 20 µM [3]: 13.4 ± 4.4% | inhibition at 200 µM [3]: -11.8 ± 3.7%

CNCCCN1c2ccccc2CCc2ccccc21 [Desipramine]
inhibition at 20 µM [1]: -10.8 ± 2.3% | inhibition at 200 µM [1]: 8.3 ± 6.7% | inhibition at 20 µM [2]: -10.3 ± 2.1% | inhibition at 200 µM [2]: 11.6 ± 7.2% | inhibition at 20 µM [3]: -0.7 ± 3.1% | inhibition at 200 µM [3]: -37.6 ± 11.8%

COc1ccc2c(c1)[C@]13CCCC[C@@H]1[C@H](C2)N(C)CC3 [Dextromethorphan]
inhibition at 20 µM [1]: 7.3 ± 1.9% | inhibition at 200 µM [1]: 2.9 ± 3.4% | inhibition at 20 µM [2]: -0.5 ± 5.8% | inhibition at 200 µM [2]: 3.1 ± 0.7% | inhibition at 20 µM [3]: -3.3 ± 0.3% | inhibition at 200 µM [3]: 6.2 ± 3.4%

O=C(O)Cc1ccccc1Nc1c(Cl)cccc1Cl [Diclofenac]
inhibition at 20 µM [1]: -15.9 ± 2.5% | inhibition at 200 µM [1]: -91.4 ± 5% | inhibition at 20 µM [2]: -15.1 ± 2.1% | inhibition at 200 µM [2]: -23.1 ± 2.2% | inhibition at 20 µM [3]: 26.1 ± 5.3% | inhibition at 200 µM [3]: -21.2 ± 2.8%

O=C(O)c1cc(-c2ccc(F)cc2F)ccc1O [Diflunisal]
inhibition at 20 µM [1]: 26.6 ± 0.9% | inhibition at 200 µM [1]: -20.5 ± 3.3% | inhibition at 20 µM [2]: 27.9 ± 1% | inhibition at 200 µM [2]: -20 ± 0.5% | inhibition at 20 µM [3]: -42.4 ± 4.5% | inhibition at 200 µM [3]: 10 ± 2.1%

Source: PMC9217908, “Screening of commonly prescribed drugs for effects on the CAT1-mediated transport of L-arginine and arginine derivatives” (Amino Acids, 2022)
